Consider two compounds from patent publication US20050118228A1, “Compositions and methods for augmentation or repair of intervertebral discs” (priority 2003, published 2005).

For the assay, the system named is Adult human keratinocytes. The assay can be described thus: Telomerase expression (TRAP assay kit) in treated keratinocytes. Particulars: keratinocytes exposed to both agents in sequence: 10-25 μM 5-aza-2′-deoxycytidine for 5 days and 100-250 ng/ml trichostatin for 1 day; versus cells not exposed. It counts as cell-based. The protocol: Adult human keratinocytes are obtained form Clonetics (San Diego, Calif.) and grown in Keratinocyte Growth Media in 5-10% CO2 at 37 degree C. according to the instructions “Keratinocyte System Instructions” BioWhittaker Catalogue number AA-1000. When the adult keratinocytes are about 40-80% confluent, 10-25 μM 5-aza-2′-deoxycytidine (Sigma, St Louis, Mo.) is added to the culture. After 4 days of incubation with 5-aza-2′-deoxycytidine, 100-250 ng/ml trichostatin (Sigma, St Louis, Mo.) is added to the culture. The culture is incubated for an additional day and sampled for telomerase activity.
Keratinocytes exposed to 10-25 μM 5-aza-2′-deoxycytidine for 5 days and 100-250 ng/ml trichostatin for 1 day and cells not exposed to these agents are assayed for the expression of telomerase (using a commercially available TRAP assay kit). These cells are assayed along side positive controls (HeLa and NH-12 cells) and negative controls (human foreskin fibroblasts and heated HN-12 cell extracts). Telomerase activity is measured by phosphoimaging telomeric products resolved on 12.5% […]. Telometric ladders indicative of telomerase activity, consistent with the presence of stem cells is observed in the positive controls and in the keratinocytes exposed to 10-25 μM 5-aza-2′-deoxycytidine for 5 days and 100-250 ng/ml trichostatin for 1 day.

On to `Nc1ncn([C@H]2C[C@H](O)[C@@H](CO)O2)c(=O)n1` [5-aza-2′-deoxycytidine], for which the “Telomerase activity (telomeric ladders)” value was “increased telomerase activity”.
The value for `CC(/C=C/C(=O)NO)=C\[C@@H](C)C(=O)c1ccc(N(C)C)cc1` [trichostatin] was “increased telomerase activity”.
